US11123337B2, “4-methylsulfonyl-substituted piperidine urea compounds” (MYOKARDIA, INC., priority 2015, dated 2021)

Target: bovine cardiac myosin (Bos taurus, UniProt Q9BE39)
Test: Myosin activation assay (PK/LDH-coupled ATPase, bovine cardiac myofibrils)
Format: biochemical
Details: AC20 = concentration at which total response is increased by twenty percent
Protocol: Small molecule agents were assessed for their ability to activate the enzymatic activity of bovine cardiac myosin using a biochemical assay that couples the release of ADP (adenosine diphosphate) from cardiac myosin to an enzymatic coupling system consisting of pyruvate kinase and lactate dehydrogenase (PK/LDH) and monitoring the absorbance decrease of NADH (at 340 nm) as a function of time. PK converts ADP to ATP (adenosine triphosphate) by converting PEP (phosphoenolpyruvate) to pyruvate. Pyruvate is then converted to lactate by LDH by converting NADH (nicotinamide adenine dinucleotide) to NAD (oxidized nicotinamide adenine dinucleotide). The source of cardiac myosin was from bovine heart in the form of skinned myofibrils. Prior to testing small molecule agents, the bovine myofibrils were assessed for their calcium responsiveness and the calcium concentration that achieves either a 50% (pCa50 or pCa=˜6) or <5% (pCa=10) activation of the myofibril system was chosen as the final condition for assessing the activation activity of the small molecule agents. All enzymatic activity was measured in a buffered solution containing 12 mM PIPES (piperazine-N,N′-bis(2-ethanesulfonic acid), 2 mM magnesium chloride at pH 6.8 (PM12 buffer). Final assay conditions were 1 mg/mL of bovine cardiac myofibrils, 0.4 mM PK/LDH, 50 uM ATP, 0.1 mg/mL BSA (bovine serum albumin), 10 ppm antifoam, 2 mM BME, 0.5 mM NADH, 1.5 mM PEP at the desired free calcium concentration required to achieve either 50% or <5% activation of the myofibrils.
A dilution series of compound was created in DMSO such that the final desired concentration of compound would be achieved in a volume of […] with a fixed DMSO concentration of 3.3% (v/v). Typically a 1 μL of the dilution series was added to a 384 well plate to achieve a 10 point dose response. Following the addition of 14 μL of a solution containing bovine cardiac myofibrils, PK/LDH and a solution of calcium (that achieved the desired activation), the enzymatic reaction was started with the addition of 15 μL of a solution containing ATP, PEP and NADH. The reaction progress was followed in a PerkinElmer Envision plate reader at ambient temperature using clear bottom plates. The plate reader was configured to read absorbance at 340 nm in kinetics mode for 15 minutes. Data were recorded as the slope of the absorbance response to time. The slopes of the absorbance response as a function of time were normalized to slopes on the plate containing DMSO. This normalized rate was then plotted as a function of small molecule concentration and the data was fitted to a four-parameter fit using EXCEL XLfit. The concentration at which the total response is increased by twenty or fifty percent is reported as AC20 or AC50.

Chain of bovine cardiac myosin (Q9BE39 whole entry): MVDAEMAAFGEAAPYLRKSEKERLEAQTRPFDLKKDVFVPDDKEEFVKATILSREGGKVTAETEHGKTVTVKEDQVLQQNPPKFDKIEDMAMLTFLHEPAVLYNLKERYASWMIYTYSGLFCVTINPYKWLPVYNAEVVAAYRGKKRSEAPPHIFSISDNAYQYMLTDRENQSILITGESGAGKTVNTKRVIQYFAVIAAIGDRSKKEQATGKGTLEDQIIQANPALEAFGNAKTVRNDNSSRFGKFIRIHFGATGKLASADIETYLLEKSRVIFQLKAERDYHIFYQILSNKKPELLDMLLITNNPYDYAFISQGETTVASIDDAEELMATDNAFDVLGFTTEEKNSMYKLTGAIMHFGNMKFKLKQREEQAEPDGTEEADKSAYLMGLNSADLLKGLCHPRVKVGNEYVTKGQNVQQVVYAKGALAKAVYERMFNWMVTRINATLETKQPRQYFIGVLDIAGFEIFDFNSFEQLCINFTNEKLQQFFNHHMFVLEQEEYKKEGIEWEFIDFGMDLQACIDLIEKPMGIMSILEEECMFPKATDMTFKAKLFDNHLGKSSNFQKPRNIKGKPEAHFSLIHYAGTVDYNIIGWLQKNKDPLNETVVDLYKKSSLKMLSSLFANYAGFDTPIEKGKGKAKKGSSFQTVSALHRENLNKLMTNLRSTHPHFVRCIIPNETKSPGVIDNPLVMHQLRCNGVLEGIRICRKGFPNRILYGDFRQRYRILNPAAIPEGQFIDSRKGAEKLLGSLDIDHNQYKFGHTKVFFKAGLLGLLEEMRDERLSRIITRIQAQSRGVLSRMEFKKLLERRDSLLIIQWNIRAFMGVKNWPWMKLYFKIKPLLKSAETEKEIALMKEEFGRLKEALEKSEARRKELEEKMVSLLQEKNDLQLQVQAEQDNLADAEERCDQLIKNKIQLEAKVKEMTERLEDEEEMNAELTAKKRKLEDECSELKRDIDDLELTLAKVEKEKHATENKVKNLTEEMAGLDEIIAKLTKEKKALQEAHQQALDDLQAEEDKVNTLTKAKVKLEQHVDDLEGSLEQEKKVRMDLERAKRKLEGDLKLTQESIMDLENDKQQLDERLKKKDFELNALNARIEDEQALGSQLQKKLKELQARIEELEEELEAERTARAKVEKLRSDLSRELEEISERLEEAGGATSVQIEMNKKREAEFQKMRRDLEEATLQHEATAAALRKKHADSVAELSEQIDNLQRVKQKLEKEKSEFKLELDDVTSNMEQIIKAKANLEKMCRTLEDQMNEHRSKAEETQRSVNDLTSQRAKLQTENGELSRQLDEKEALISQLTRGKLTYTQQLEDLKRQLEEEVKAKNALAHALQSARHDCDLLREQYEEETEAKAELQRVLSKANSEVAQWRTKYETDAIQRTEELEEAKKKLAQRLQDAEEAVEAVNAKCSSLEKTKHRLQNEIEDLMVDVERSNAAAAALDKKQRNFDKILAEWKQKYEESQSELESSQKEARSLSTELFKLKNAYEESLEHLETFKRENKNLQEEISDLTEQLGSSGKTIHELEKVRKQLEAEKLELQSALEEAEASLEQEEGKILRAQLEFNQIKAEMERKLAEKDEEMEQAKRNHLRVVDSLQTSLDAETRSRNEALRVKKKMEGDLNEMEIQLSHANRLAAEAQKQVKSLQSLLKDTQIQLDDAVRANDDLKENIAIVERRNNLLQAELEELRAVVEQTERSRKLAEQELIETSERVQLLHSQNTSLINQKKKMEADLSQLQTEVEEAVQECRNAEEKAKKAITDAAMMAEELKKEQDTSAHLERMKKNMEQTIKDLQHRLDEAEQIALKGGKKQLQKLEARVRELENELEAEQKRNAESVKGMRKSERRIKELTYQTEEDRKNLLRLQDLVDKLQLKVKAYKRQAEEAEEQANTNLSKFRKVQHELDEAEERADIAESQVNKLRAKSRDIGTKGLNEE
Chain of bovine cardiac myosin (P85100 whole entry partner): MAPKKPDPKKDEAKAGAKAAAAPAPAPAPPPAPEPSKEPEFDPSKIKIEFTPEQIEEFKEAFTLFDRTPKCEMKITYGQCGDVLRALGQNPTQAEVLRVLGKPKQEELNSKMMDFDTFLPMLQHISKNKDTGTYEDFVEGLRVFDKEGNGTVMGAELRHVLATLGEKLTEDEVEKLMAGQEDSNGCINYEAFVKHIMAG
Chain of bovine cardiac myosin (Q3SZE5 whole entry partner): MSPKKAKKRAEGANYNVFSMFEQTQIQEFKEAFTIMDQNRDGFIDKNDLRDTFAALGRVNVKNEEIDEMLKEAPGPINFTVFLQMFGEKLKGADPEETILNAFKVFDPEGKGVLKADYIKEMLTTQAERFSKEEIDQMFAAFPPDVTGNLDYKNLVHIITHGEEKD

Structure (SMILES) | Myosin Activation (AC20)
Cc1cc(C(F)(F)F)ccc1S(=O)(=O)C(F)(F)C1CCN(C(=O)Nc2ccnnc2)CC1 [Compound 65, 4-(difluoro((2-methyl-4-(trifluoromethyl)phenyl)sulfonyl)methyl)-N-(pyridazin-4-yl)piperidine-1-carboxamide] | ++ (++ represents myosin activation value AC20 from 2 μM-5 μM)
Cn1ncc2c(S(=O)(=O)C(F)(F)C3CCN(C(=O)Nc4ccnnc4)CC3)cccc21 [Compound 66, 4-(difluoro((1-methyl-1H-indazol-4-yl)sulfonyl)methyl)-N-(pyridazin-4-yl)piperidine-1-carboxamide] | ++ (++ represents myosin activation value AC20 from 2 μM-5 μM)
O=C(Nc1ccnnc1)N1CCC(C(F)(F)S(=O)(=O)c2ccc(N3CCC3)nc2)CC1 [Compound 67, 4-(((6-(azetidin-1-yl)pyridin-3-yl)sulfonyl)difluoromethyl)-N-(pyridazin-4-yl)piperidine-1-carboxamide] | ++ (++ represents myosin activation value AC20 from 2 μM-5 μM)
COc1ccc(F)cc1S(=O)(=O)C(F)(F)C1CCN(C(=O)Nc2ccnnc2)CC1 [Compound 68, 4-(difluoro((5-fluoro-2-methoxyphenyl)sulfonyl)methyl)-N-(pyridazin-4-yl)piperidine-1-carboxamide] | + (+ represents myosin activation value AC20 > 5 μM)
O=C(Nc1ccnnc1)N1CCC(C(F)(F)S(=O)(=O)c2ccc(C(F)(F)F)c(F)c2)CC1 [Compound 69, 4-(difluoro((3-fluoro-4-(trifluoromethyl)phenyl)sulfonyl)methyl)-N-(pyridazin-4-yl)piperidine-1-carboxamide] | ++ (++ represents myosin activation value AC20 from 2 μM-5 μM)
Cc1cnccc1S(=O)(=O)C(F)(F)C1CCN(C(=O)Nc2ccnnc2)CC1 [Compound 70, 4-(difluoro((3-methylpyridin-4-yl)sulfonyl)methyl)-N-(pyridazin-4-yl)piperidine-1-carboxamide] | ++ (++ represents myosin activation value AC20 from 2 μM-5 μM)
O=C(Nc1ccnnc1)N1CCC(C(F)(F)S(=O)(=O)c2cccc3c2COC3)CC1 [Compound 71, 4-(((1,3-dihydroisobenzofuran-4-yl)sulfonyl)difluoromethyl)-N-(pyridazin-4-yl)piperidine-1-carboxamide] | ++ (++ represents myosin activation value AC20 from 2 μM-5 μM)
COc1ccc(Cl)c(S(=O)(=O)C(F)(F)C2CCN(C(=O)Nc3ccnnc3)CC2)c1 [Compound 72, 4-(((2-chloro-5-methoxyphenyl)sulfonyl)difluoromethyl)-N-(pyridazin-4-yl)piperidine-1-carboxamide] | +++ (+++ represents myosin activation value AC20 < 2 μM)
Cc1cc(OC(F)(F)F)ccc1S(=O)(=O)C(F)(F)C1CCN(C(=O)Nc2ccnnc2)CC1 [Compound 73, 4-(difluoro((2-methyl-4-(trifluoromethoxy)phenyl)sulfonyl)methyl)-N-(pyridazin-4-yl)piperidine-1-carboxamide] | ++ (++ represents myosin activation value AC20 from 2 μM-5 μM)
O=C(Nc1ccnnc1)N1CCC(C(F)(F)S(=O)(=O)c2cc(OC(F)(F)F)ccc2Cl)CC1 [Compound 74, 4-(((2-chloro-5-(trifluoromethoxy)phenyl)sulfonyl)difluoromethyl)-N-(pyridazin-4-yl)piperidine-1-carboxamide] | +++ (+++ represents myosin activation value AC20 < 2 μM)
N#Cc1ccc(S(=O)(=O)C(F)(F)C2CCN(C(=O)Nc3ccnnc3)CC2)c(Cl)c1 [Compound 76, 4-(((2-chloro-4-cyanophenyl)sulfonyl)difluoromethyl)-N-(pyridazin-4-yl)piperidine-1-carboxamide] | ++ (++ represents myosin activation value AC20 from 2 μM-5 μM)
CCC(F)(C1CCN(C(=O)Nc2ccnnc2)CC1)S(=O)(=O)c1cccc(F)c1 (stereo not drawn) [Compound 77, 4-(1-fluoro-1-((3-fluorophenyl)sulfonyl)propyl)-N-(pyridazin-4-yl)piperidine-1-carboxamide] | ++ (++ represents myosin activation value AC20 from 2 μM-5 μM)
Cn1cc(S(=O)(=O)C(F)(F)C2CCN(C(=O)Nc3ccc(C#N)nc3)CC2)c(C(F)F)n1 [Compound 78, N-(6-cyanopyridin-3-yl)-4-(((3-(difluoromethyl)-1-methyl-1H-pyrazol-4-yl)sulfonyl)difluoromethyl)piperidine-1-carboxamide] | + (+ represents myosin activation value AC20 > 5 μM)
Cn1cc(S(=O)(=O)C(F)(F)C2CCN(C(=O)Nc3ccnc(F)c3)CC2)c(C(F)F)n1 [Compound 79, 4-(((3-(difluoromethyl)-1-methyl-1H-pyrazol-4-yl)sulfonyl)difluoromethyl)-N-(2-fluoropyridin-4-yl)piperidine-1-carboxamide] | + (+ represents myosin activation value AC20 > 5 μM)
Cc1ccc(NC(=O)N2CCC(C(F)(F)S(=O)(=O)c3cn(C)nc3C(F)F)CC2)cn1 [Compound 80, 4-(((3-(difluoromethyl)-1-methyl-1H-pyrazol-4-yl)sulfonyl)difluoromethyl)-N-(6-methylpyridin-3-yl)piperidine-1-carboxamide] | + (+ represents myosin activation value AC20 > 5 μM)
Cn1cc(S(=O)(=O)C(F)(F)C2CCN(C(=O)Nc3ccc(F)nc3)CC2)c(C(F)F)n1 [Compound 81, 4-(((3-(difluoromethyl)-1-methyl-1H-pyrazol-4-yl)sulfonyl)difluoromethyl)-N-(6-fluoropyridin-3-yl)piperidine-1-carboxamide] | + (+ represents myosin activation value AC20 > 5 μM)
Cn1cc(S(=O)(=O)C(F)(F)C2CCN(C(=O)Nc3ccon3)CC2)c(C(F)F)n1 [Compound 82, 4-(((3-(difluoromethyl)-1-methyl-1H-pyrazol-4-yl)sulfonyl)difluoromethyl)-N-(isoxazol-3-yl)piperidine-1-carboxamide] | + (+ represents myosin activation value AC20 > 5 μM)
Cn1cc(S(=O)(=O)C(F)(F)C2CCN(C(=O)Nc3ccnnc3)CC2)c(C(F)F)n1 [Compound 83, 4-(((3-(difluoromethyl)-1-methyl-1H-pyrazol-4-yl)sulfonyl)difluoromethyl)-N-(pyridazin-4-yl)piperidine-1-carboxamide] | ++ (++ represents myosin activation value AC20 from 2 μM-5 μM)
Cn1cnc(S(=O)(=O)C(F)(F)C2CCN(C(=O)Nc3ccnnc3)CC2)c1 [Compound 84, 4-(difluoro((1-methyl-1H-imidazol-4-yl)sulfonyl)methyl)-N-(pyridazin-4-yl)piperidine-1-carboxamide] | + (+ represents myosin activation value AC20 > 5 μM)
CCn1nccc1S(=O)(=O)C(F)(F)C1CCN(C(=O)Nc2ccnnc2)CC1 [Compound 85, 4-(((1-ethyl-1H-pyrazol-5-yl)sulfonyl)difluoromethyl)-N-(pyridazin-4-yl)piperidine-1-carboxamide] | + (+ represents myosin activation value AC20 > 5 μM)
O=C(Nc1ccnnc1)N1CCC(C(F)(F)S(=O)(=O)c2ccccc2-n2cncn2)CC1 [Compound 86, 4-(((2-(1H-1,2,4-triazol-1-yl)phenyl)sulfonyl)difluoromethyl)-N-(pyridazin-4-yl)piperidine-1-carboxamide] | ++ (++ represents myosin activation value AC20 from 2 μM-5 μM)
